How the values were obtained:
11beta-HSD1 [1] = molecular target: T1, 11beta-HSD1 (Homo sapiens, UniProt P28845); test: Microsome assay: cortisone to cortisol conversion, ELISA-based cortisol detection; assay type: biochemical; parameters: made in house; host or cells: HEK293 cells (ATCC CRL-1573), transient transfection with lipofectamine; microsomal fraction; conditions: microsomes from HEK293 cells transiently expressing human 11beta-HSD1; cortisone 50-200 nM, NADPH 1 mM, 60 min, 37° C.; read-out: h 11-beta-HSD 1 IC50
T1 sequence (P28845 whole entry): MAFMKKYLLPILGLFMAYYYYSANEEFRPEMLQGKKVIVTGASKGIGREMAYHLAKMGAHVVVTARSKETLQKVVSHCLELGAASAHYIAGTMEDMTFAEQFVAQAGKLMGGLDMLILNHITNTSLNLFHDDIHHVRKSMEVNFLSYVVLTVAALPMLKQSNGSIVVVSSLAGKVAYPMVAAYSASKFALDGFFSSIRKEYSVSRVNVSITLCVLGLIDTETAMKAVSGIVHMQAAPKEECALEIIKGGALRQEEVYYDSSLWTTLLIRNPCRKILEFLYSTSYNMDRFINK
Description: The cDNA encoding the human 11beta-HSD1 protein was cloned into the expression vector pcDNA3 ([…]). This construct (for details see Alex Odermatt et al.; J Biol. Chem., 1999, Vol. 274, Issue 40, 28762-28770) was used to transiently express the protein in HEK293 cells (ATCC number: CRL-1573, described in Graham, F. L., Smiley, J., Russell, W. C., Nairn, R.; (1977)) using lipofectamine. 48 h after transfection cells were washed twice with ice-cold PBS (Phsophate buffered Saline). To 1 volume of cell suspension in PBS 2 volumes of ice-cold lysis buffer (50 mM Tris; pH7.5; 1 mM EDTA; 100 mM NaCl) were added. The cells were lysed by Potter-homogenization (20 strokes). The resulting homogenate was sonicated with a tip sonicator (10% output; 2×30 sec.) and cleared by a low speed centrifugation (10 min×9000 g; 4° C.). The microsomal fraction was collected by a high speed centrifugation (60 min×110,000 g). The resulting pellet was resuspended in storage buffer (20 mM Tris pH 7.5; 1 mM EDTA; 10% Glycerol) and the centrifugation was repeated. The resulting pellet containing the microsomal fraction was again taken up into storage buffer and aliquots were kept frozen in liquid Nitrogen until use.
Microsomes isolated from HEK293 cells transiently expressing human 11beta-HSD1 (for details see above) were incubated in assay buffer (100 mM NaCl; 1 mM EDTA; 1 mM EGTA; 1 mM MgCl; 250 mM Sucrose; 20 mM Tris pH 7.4; Cortisone 50-200 nM and NADPH 1 mM) together with different concentrations of test substances. After 60 min. of incubation at 37° C. the assay was stopped by heating to 80° C. (5 min.) and by addition of the inhibitor Carbenoxolone (1 uM). The amount of Cortisol produced in this assay was determined using a commercially available, ELISA-based Cortisol-detection kit (Distributed by Assay Design, Inc.). Inhibitors were characterized by their IC50 values, e.g. the concentration at which the production of cortisol was 50% reduced.

11beta-HSD1 [2] = molecular target: T1, 11beta-HSD1; parameters: host or cells: in vivo treatment of human subjects; conditions: in man, treatment with carbenoxolone; cited from earlier work

Compound	IC50 (11beta-HSD1 [1]) [nM]	insulin sensitivity (11beta-HSD1 [2])
O=c1[nH]c(CC(F)(F)F)cn1C1C2CC3CC(C2)CC1C3 (stereo not shown) [Example 16, 1-Adamantan-2-yl-4-(2,2,2-trifluoro-ethyl)-1,3-dihydro-imidazol-2-one]	39	
CC(C)Cc1cn(-c2ccccc2OC(F)(F)F)c(=O)n1CC1CC1 [Example 45, 3-Cyclopropylmethyl-4-isobutyl-1-(2-trifluoromethoxy-phenyl)-1,3-dihydro-imidazol-2-one]	192	
CC1(C2CC2)CN(C2C3CC4CC2CC(O)(C4)C3)C(=O)N1C1CC1 (stereo not shown) [Example 80, 3,4-Dicyclopropyl-1-[(E)-5-hydroxy-adamantan-2-yl]-4-methyl-imidazolidin-2-one]	3	
CC1(C)[C@@H](OC(=O)CCC(=O)O)CC[C@]2(C)[C@H]3C(=O)C=C4[C@@H]5C[C@@](C)(C(=O)O)CC[C@]5(C)CC[C@@]4(C)[C@]3(C)CC[C@@H]12 [carbenoxolone]		increase in insulin sensitivity

Reference: patent US8129423B2, “Imidazolone and imidazoloidinone derivatives as 11b-HSD1 inhibitors” (Hoffman-La Roche Inc., priority 2006, dated 2012)
